These results are taken from US8586555B2, “Immunomodulatory compositions, formulations, and methods for use thereof” (Dynavax Technologies Corporation, priority 2001, dated 2013).

Holding throughout (format): cell-based
Assay [1] relates to human peripheral blood mononuclear cells (hPBMC). Put plainly: human PBMC assay, Example 4 (oligos and PLGA premixed 15 minutes). The note with it: for IFN-α Mean / IFN-γ Mean: mean of donors 28044, 28045. Here is the method:
(§1) Hexameric oligonucleotides were tested for immunomodulatory activity alone and complexed with lactic acid/glycolic acid copolymer microcarrier beads using a human peripheral blood mononuclear cells (hPBMC) assay. Peripheral blood was collected from healthy volunteers by venipuncture using heparinized syringes. Blood was layered onto a FICOLL® (Amersham Pharmacia Biotech) cushion and centrifuged. hPBMCs, located at the FICOLL® interface, were collected, then washed twice with cold phosphate buffered saline (PBS). The cells were resuspended and cultured in 48 well plates at 2×10^6 cells/mL at 37° C. in RPMI 1640 with 10% heat-inactivated human AB serum plus 50 units/mL penicillin, 50 μg/mL streptomycin, 300 μg/mL glutamine, 1 mM sodium pyruvate, and 1×MEM non-essential amino acids (NEAA).
(§2) Oligonucleotides were tested as single agents, or in combination with PLGA microspheres (unmodified or cationic). All oligonucleotides contained 100% phosphorothioate linkages and were tested at 20 μg/ml. The PLGA microcarriers were used at 250 μg/ml. When oligos were tested with PLGA microcarriers, the oligo and the microcarriers were added at the same time to the culture. The cells were cultured in the in the presence of test samples for 24 hours, then cell-free medium was collected from each well and assayed for IFN-γ and IFN-α concentration. Two different oligonucleotides were used as controls: a first oligonucleotide known to have immunostimulatory activity (a 22mer oligonucleotide containing an ISS (“ISS+,” 5′-[…]-3′(SEQ ID NO:2)) and a second oligonucleotide of similar sequence but lacking immunostimulatory activity (“ISS−,” 5′-[…]-3′ (SEQ ID NO:1)). SAC (PANSORBIN® CalBiochem, 1/5000 dilution) and a untreated culture were used as additional positive and negative controls, respectively. SAC contains Staph. aureus (Cowan I) cell material. All samples were assayed in duplicate.
(§3) IFN-γ and IFN-α were assayed using CYTOSCREEN™ ELISA kits from BioSource International, Inc., according to the manufacturer's instructions.
Additional hexameric and pentameric oligonucleotides were tested for immunomodulatory activity in the PBMC assay. Oligonucleotides 6-6 (5′-TCGAGA-3′), 6-8 (5′-GTCGAC-3′), 6-9 (5′-GTCGTT-3′), 6-2 (5′-TCGTTT-3′), 6-3 (5′-TTCGTT-3′), 6-4 (5′-TTTCGT-3′), 5-1 (5′-TCGTC-3′), and 5-2 (5′-TCGTT-3′) were tested alone or in combination with cationic PLGA as described in Example 3 except that the oligos and PLGA were premixed for 15 minutes room temperature before addition to the cultures. The test articles were assayed using PBMC isolated from donors 28044 and 28045.

For assay [2] the test system is unchanged. Briefly: human PBMC assay, Example 5 (96 well plates, premixed). The note with it: for IFN-α Mean / IFN-γ Mean: mean of donors 28051-28054. On the procedure: as §1, §2, §3
(§4) The immunomodulatory activity of the oligonucleotides used in Examples 3 and 4 was confirmed with the human PBMC assay using PBMCs from an additional four donors (donors 28051-28054). Oligonucleotides were tested alone or in combination with cationic PLGA as described in Example 3, except that 96 well plates were used instead of 48 well plates and the oligonucleotides were premixed with the cationic microspheres at room temperature for 15 minutes before they were added to the culture, rather than being added simultaneously to the culture.

Assay [3] has the same test system. Briefly: human PBMC assay, Example 6. Here is the method: as §1, §2, §3, §4
Additional oligonucleotides were tested for immunomodulatory activity in the human PBMC assay. Oligonucleotides were tested alone or in combination with cPLGA as described in Example 5.
Additional oligonucleotides were tested using hPBMCs from volunteers 154-157 using the same assay. Results, which are shown in Table 7, confirm the activity of oligonucleotides fitting the formula 5′-X1TCGX2-3′, where the oligonucleotide is a 3-6mer, X1 is zero or one nucleotide and X2 is zero to three nucleotides.

Assay [4] has the same test system. Briefly: human PBMC assay, Example 7 (oligo 20 μg/ml, cPLGA 100 μg/ml). The note with it: for IFN-α Mean / IFN-γ Mean: mean of donors 28115-28118. Here is the method: as §1, §2, §3, §4
Additional oligonucleotides, some incorporating modified bases, were tested for immunomodulatory activity in the human PBMC assay. Oligonucleotides were tested alone or in combination with cPLGA as described in Example 5. The oligonucleotides were premixed with the cationic PLGA microspheres for 15 minutes at room temperature at concentrations of 20 μg/ml and 100 μg/ml, respectively.

Setting [5] is: delivered as IMO/MC complexes (cPLGA).

Consider 5′-GTCGAC-3′ [Oligonucleotide 6-8], for which the IFN-α was 0 pg/mL in assay [1] (donor 28044); 0 pg/mL in assay [1] (donor 28045); 1 pg/mL in assay [2] (donor 28051); 0 pg/mL in assay [2] (donor 28052); 6 pg/mL in assay [2] (donor 28053); 0 pg/mL in assay [2] (donor 28054). The IFN-γ in assay [1] (donor 28044) is 6 pg/mL; in assay [1] (donor 28045), 0 pg/mL; in assay [2] (donor 28051) it was 0 pg/mL; in assay [2] (donor 28052), 0 pg/mL; in assay [2] (donor 28053) it was 1 pg/mL; in assay [2] (donor 28054), 2 pg/mL. The “IFN-α Mean” value worked out at 0 pg/mL in assay [1] and 2 pg/mL in assay [2]. The “IFN-γ Mean” value turned out to be 3 pg/mL in assay [1] and 1 pg/mL in assay [2]. Moreover, the “immunomodulatory activity” value in assay [2] (delivered alone) is “inactive”; in assay [2] (setting [5]) it was “highly active”.
For 5′-GTCGTT-3′ [Oligonucleotide 6-9], the IFN-α in assay [1] (donor 28044) came out at 0 pg/mL; in assay [1] (donor 28045) it was 0 pg/mL; in assay [2] (donor 28051), 0 pg/mL; in assay [2] (donor 28052), 0 pg/mL; in assay [2] (donor 28053), 6 pg/mL; in assay [2] (donor 28054) it was 0 pg/mL. The IFN-γ in assay [1] (donor 28044) is 6 pg/mL; in assay [1] (donor 28045), 0 pg/mL; in assay [2] (donor 28051), 1 pg/mL; in assay [2] (donor 28052), 0 pg/mL; in assay [2] (donor 28053), 2 pg/mL; in assay [2] (donor 28054) it was 1 pg/mL. In addition, the “IFN-α Mean” value in assay [1] was found to be 0 pg/mL; in assay [2], 2 pg/mL. Moreover, the “IFN-γ Mean” value in assay [1] was determined as 3 pg/mL; in assay [2], 1 pg/mL. For the same substance, the “immunomodulatory activity” value in assay [2] (delivered alone) was “inactive”; in assay [2] (setting [5]), “highly active”.
Take “5′-TCCTTT-3′ [Oligonucleotide 6-20, reference compound]”: the “IFN-α Mean” value in assay [3] (mean of volunteers 154-157) and in assay [4] was 0 pg/mL in each case. Further, the “IFN-γ Mean” value in assay [3] (mean of volunteers 154-157) came to 3 pg/mL; in assay [4], 5 pg/mL. The IFN-α in assay [3] (volunteer 154), in assay [3] (volunteer 155), in assay [3] (volunteer 156), in assay [3] (volunteer 157), in assay [4] (donor 28115) and in assay [4] (donor 28116) was 0 pg/mL in each case. Also, the IFN-α in assay [4] (donor 28117) and in assay [4] (donor 28118) was 0 pg/mL in each case. For the same substance, the IFN-γ was determined as 0 pg/mL in assay [3] (volunteer 154); 0 pg/mL in assay [3] (volunteer 155); 13 pg/mL in assay [3] (volunteer 156); 0 pg/mL in assay [3] (volunteer 157); 6 pg/mL in assay [4] (donor 28115); 3 pg/mL in assay [4] (donor 28116). The IFN-γ in assay [4] (donor 28117) worked out at 9 pg/mL; in assay [4] (donor 28118), 0 pg/mL.
For the substance 5′-TCGAGA-3′ [Oligonucleotide 6-6], the IFN-α in assay [1] (donor 28044) worked out at 0 pg/mL; in assay [1] (donor 28045), 0 pg/mL; in assay [2] (donor 28051), 1 pg/mL; in assay [2] (donor 28052) it was 4 pg/mL; in assay [2] (donor 28053), 0 pg/mL; in assay [2] (donor 28054), 10 pg/mL. The IFN-γ in assay [1] (donor 28044) was determined as 0 pg/mL; in assay [1] (donor 28045), 0 pg/mL; in assay [2] (donor 28051), 2 pg/mL; in assay [2] (donor 28052), 2 pg/mL; in assay [2] (donor 28053), 1 pg/mL; in assay [2] (donor 28054), 2 pg/mL. For the same substance, the “IFN-α Mean” value was 0 pg/mL in assay [1] and 4 pg/mL in assay [2]. Moreover, the figures for the “IFN-γ Mean” value in assay [1] and in assay [2] were 0 pg/mL and 2 pg/mL, respectively. In addition, the “immunomodulatory activity” value is “inactive” in assay [2] (delivered alone) and “highly active” in assay [2] (setting [5]).
For 5′-TCGTC-3′ [Oligonucleotide 5-1], the IFN-α in assay [1] (donor 28044) was 0 pg/mL; in assay [1] (donor 28045), 0 pg/mL; in assay [2] (donor 28051), 0 pg/mL; in assay [2] (donor 28052), 3 pg/mL; in assay [2] (donor 28053), 1 pg/mL; in assay [2] (donor 28054), 1 pg/mL. The IFN-γ in assay [1] (donor 28044) amounted to 6 pg/mL; in assay [1] (donor 28045), 7 pg/mL; in assay [2] (donor 28051), 1 pg/mL; in assay [2] (donor 28052), 0 pg/mL; in assay [2] (donor 28053), 1 pg/mL; in assay [2] (donor 28054) it was 0 pg/mL. For the same substance, the “IFN-α Mean” value in assay [1] is 0 pg/mL; in assay [2], 1 pg/mL. For the same substance, the figures for the “IFN-γ Mean” value in assay [1] and in assay [2] were 6 pg/mL and 1 pg/mL, respectively. Further, the “immunomodulatory activity” value in assay [2] (delivered alone) was “inactive”; in assay [2] (setting [5]), “highly active”.
As to 5′-TTCGTT-3′ [Oligonucleotide 6-3], the IFN-α was 0 pg/mL in assay [1] (donor 28044); 0 pg/mL in assay [1] (donor 28045); 0 pg/mL in assay [2] (donor 28051); 5 pg/mL in assay [2] (donor 28052); 5 pg/mL in assay [2] (donor 28053); 0 pg/mL in assay [2] (donor 28054). Besides, the IFN-γ in assay [1] (donor 28044) is 6 pg/mL; in assay [1] (donor 28045) it was 0 pg/mL; in assay [2] (donor 28051), 1 pg/mL; in assay [2] (donor 28052) it was 0 pg/mL; in assay [2] (donor 28053), 5 pg/mL; in assay [2] (donor 28054) it was 0 pg/mL. The “IFN-α Mean” value in assay [1] was found to be 0 pg/mL; in assay [2] it was 3 pg/mL. Also, the entries for the “IFN-γ Mean” value in assay [1] and in assay [2] were 3 pg/mL and 2 pg/mL, respectively. Also, the “immunomodulatory activity” value was “inactive” in assay [2] (delivered alone) and “highly active” in assay [2] (setting [5]).
Turning to 5′-TTTCGT-3′ [Oligonucleotide 6-4], the IFN-α in assay [1] (donor 28044) amounted to 0 pg/mL; in assay [1] (donor 28045), 0 pg/mL; in assay [2] (donor 28051), 0 pg/mL; in assay [2] (donor 28052), 2 pg/mL; in assay [2] (donor 28053), 11 pg/mL; in assay [2] (donor 28054), 0 pg/mL. The IFN-γ was determined as 13 pg/mL in assay [1] (donor 28044); 0 pg/mL in assay [1] (donor 28045); 3 pg/mL in assay [2] (donor 28051); 0 pg/mL in assay [2] (donor 28052); 2 pg/mL in assay [2] (donor 28053); 0 pg/mL in assay [2] (donor 28054). In addition, the “IFN-α Mean” value in assay [1] is 0 pg/mL; in assay [2], 3 pg/mL. Also, the “IFN-γ Mean” value in assay [1] came to 6 pg/mL; in assay [2], 1 pg/mL. In addition, in assay [2] (setting [5]), the “immunomodulatory activity” value is listed as “variable activity”.
As to 5′-UCGTTT-3′ [Oligonucleotide 6-21], the “immunomodulatory activity” value in assay [4] (combined with cPLGA) is recorded as “active”. In addition, the IFN-α in assay [4] (donor 28115), in assay [4] (donor 28116), in assay [4] (donor 28117) and in assay [4] (donor 28118) was 0 pg/mL throughout. Further, the IFN-γ came to 27 pg/mL in assay [4] (donor 28115), 0 pg/mL in assay [4] (donor 28116), 7 pg/mL in assay [4] (donor 28117) and 0 pg/mL in assay [4] (donor 28118). Besides, the “IFN-α Mean” value in assay [4] amounted to 0 pg/mL. The “IFN-γ Mean” value in assay [4] amounted to 8 pg/mL.
